# Test results taken from patent US20240300924A1, “PYRAZOLE DERIVATIVE COMPOUND, ADHESIVE COMPOSITION COMPRISING SAME, AND ADHESIVE FILM COMPRISING SAME” (LG CHEM, LTD., priority 2021, published 2024).
# “Also recorded” adds a separate entry of the source.
# Tests used:
# Type in all cases: physicochemical
# [1] = Maximum absorption wavelength of the adhesive composition (solution), UV-vis; conditions: adhesive composition in MEK; UV-vis apparatus (Shimazu UV-3600)
# Excerpt: (§1) Based on 100 parts by weight a solid content except for a solvent in an adhesive composition, 95.4 parts by weight of an adhesive material (AD-701 solid content, LG Chem.), 0.29 part by weight of Compound P1, 0.1 part by weight of an isocyanate-based cross-linking agent (T39M, Soken Chemical & Engineering Co., Ltd.), 0.2 part by weight of a silane-based coupling agent (T-789J, Soken Chemical & Engineering Co., Ltd.), 0.5 part by weight of an antioxidant (Kinox-80, Hannong Chemicals Inc.), 1.5 parts by weight of an antistatic agent (FC-4400, 3M), 2 parts by weight of a hindered amine light stabilizer (Tinuvin 123, BASF SE), and 0.001 part by weight of a catalyst (dibutyltin dilaurate, Sigma-Aldrich) were added to the adhesive composition, the solvent (methyl ethyl ketone, MEK) was added thereto in an amount of 25 parts by weight based on the total parts by weight of the adhesive composition, and a release layer (PET) was coated with the adhesive composition mixed using a mixer (Shaker, SKC 6100, JEIO Tech.) to have a thickness of 22 μm to 23 μm using a knife bar coating apparatus (KP-3000, Kipae E&T Co., Ltd.), thereby preparing an adhesive film. After coating, the release layer was removed, and the adhesive film and a binder resin film (TAC: cellulose triacetate) were sequentially laminated on glass through lamination, thereby producing a sample.
# (§2) The maximum absorption wavelength λmax (nm) of each of the adhesive composition and the adhesive film was measured using a UV-vis apparatus (Shimazu UV-3600). In addition, the transmittance of the sample for light with a wavelength of 390 to 450 nm was measured by the UV-vis apparatus (Shimazu UV-3600). Under conditions of light fastness 55,600 lx*48 hours; under conditions of heat resistance 80° C. and for 500 hours; or under conditions of moisture resistance 60° C., 90% RH and for 500 hours, the sample was each exposed, and then the transmittance for light with a wavelength of 390 to 450 nm was re-measured. ΔT was calculated by dividing the value obtained by […] by the transmittance value immediately after the sample was produced, and the results under the evaluation conditions are shown in Table 1. Furthermore, the transmittance of the sample for light in a region with a wavelength of 450 nm or more was measured by the UV-vis apparatus (Shimazu UV-3600). Further, the solubility of Compound p1 to methyl ethyl ketone (MEK) was measured under conditions of 1 atm and room temperature.
# (§3) Experiments were performed under the same conditions as in Example 1, except that Compounds P3 to P10, Compound P15 and Comparative Compounds Z1 and Z2 were used instead of Compound P1, respectively, in Example 1, and the experimental results are shown in the following Table 1.
# [2] = Maximum absorption wavelength of the adhesive film (thin film), UV-vis; conditions: adhesive film 22 μm to 23 μm; UV-vis apparatus (Shimazu UV-3600)
# Excerpt: as §1, §2, §3
# [3] = Light fastness of adhesive film sample (change in transmittance ΔT); conditions: ΔT of transmittance for light of 390 to 450 nm; adhesive film sample with 0.29 part by weight compound; 55,600 lx*48 hours
# Excerpt: as §1, §2
# (§4) ΔT (%)={(transmittance measured immediately after the optical film was prepared−transmittance re-measured after the optical film is exposed to each condition of light fastness, heat resistance, and moisture resistance)/transmittance measured immediately after the optical film is prepared}×100
# (§5) • ◯: ΔT 1.5% or less • Δ: ΔT more than 1.5% and 3% or less • X: ΔT more than 3%
# (§6) The light fastness, heat resistance and moisture resistance were evaluated as ◯, Δ, and X based on whether the ΔT was 1.5% or less, more than 1.5% and 3% or less, or more than 3%, respectively.
# [4] = Heat resistance of adhesive film sample (change in transmittance ΔT); conditions: ΔT of transmittance for light of 390 to 450 nm, 80° C. for 500 hours
# Excerpt: as §1, §2, §4, §5, §6
# [5] = Moisture resistance of adhesive film sample (change in transmittance ΔT); conditions: ΔT of transmittance for light of 390 to 450 nm, 60° C., 90% RH for 500 hours
# Excerpt: as §1, §2, §4, §5, §6
# [6] = Solubility of compound in methyl ethyl ketone (MEK); conditions: solubility to 10 g of methyl ethyl ketone; 1 atm and room temperature
# Protocol: as §2
# • ◯: 0.3 wt. % or more • Δ: more than 0.1 wt. % and less than 0.3 wt. % • X: 0.1 wt. % or less
# [7] = Wavelength compatibility (transmittance of sample in region with 450 nm or more); conditions: for Wavelength compatibility: transmittance of adhesive film sample in region with wavelength of 450 nm or more; for wavelength compatibility (in words): verbal assessment
# Protocol: as §2
# • ◯: transmittance of 90% or more in region with 450 nm or more • Δ: transmittance of 80% or more in region with 450 nm or more • X: transmittance of 80% or less in region with 450 nm or more
# The wavelength compatibility was evaluated as ◯, Δ, and X based on whether the transmittance in a region with 450 nm or more was 90% or more, 80% or more, or 80% or less, respectively.
# [8] = Solution-phase UV-Vis spectrum (FIG. 2), wavelength distribution; conditions: P3 compared with Comparative Compound Z2
# Excerpt: FIG. 2 illustrates the solution-phase UV-Vis spectra of Compound P3 according to an exemplary embodiment of the present disclosure and Comparative Compound Z2 used in Comparative Example 2.
# Since the compound according to an exemplary embodiment of the present disclosure may improve the light blocking efficiency or reduce the reflectance to external light by strongly absorbing light, the compound is excellent in wavelength compatibility in being included in an optical film. The wavelength compatibility can be confirmed by the wavelength distribution and the optimization appearing in the UV-Vis spectrum. For example, FIG. 2 illustrates the solution-phase UV-Vis spectra of Compound P3 according to an exemplary embodiment of the present disclosure and Comparative Compound Z2 used in Comparative Example 2. In FIG. 2, the dotted line is the solution-phase UV-Vis spectrum for Comparative Compound Z2, and the solid line is the solution-phase UV-Vis spectrum for Compound P3 according to an exemplary embodiment of the present disclosure.
SMILES,λmax (nm) (Solution) [1],λmax (nm) (Thin film) [2],Light fastness [3],Heat resistance [4],Moisture resistance [5],MEK solubility [6],Wavelength compatibility [7],wavelength compatibility (in words) [7],wavelength distribution in solution-phase UV-Vis spectrum [8]
Cc1ccccc1-n1nc(C(C)C)c(C=C2C(=O)N(C3CCCCC3)C(=O)N(C3CCCCC3)C2=O)c1O [Compound P9],403 nm,399 nm,∘,∘,∘,∘,∘,,
"Cc1nn(-c2ccccc2)c(O)c1C=C1C(=O)NC(=O)NC1=O [Comparative Compound Z1, reference compound]",412 nm,425 nm,,,Δ (ΔT more than 1.5% and 3% or less),,Δ (transmittance of 80% or more in region with 450 nm or more),,
Cc1ccc(-n2nc(C)c(C=C3C(=O)N(C4CCCCC4)C(=O)N(C4CCCCC4)C3=O)c2O)c(C)c1 [Compound P4],403 nm,399 nm,∘,∘,∘,∘,∘,,
Cc1nn(-c2ccccc2)c(O)c1C=C1C(=O)N(C2CCCCC2)C(=O)N(C2CCCCC2)C1=O [Compound P1],411 nm,407 nm,Δ (ΔT more than 1.5% and 3% or less),Δ (ΔT more than 1.5% and 3% or less),∘,Δ (more than 0.1 wt. % and less than 0.3 wt. %),∘,,
O=C1C(=Cc2c(-c3ccccc3)nn(-c3ccccc3)c2O)C(=O)N(C2CCCCC2)C(=O)N1C1CCCCC1 [Compound P5],407 nm,406 nm,Δ (ΔT more than 1.5% and 3% or less),∘,∘,Δ (more than 0.1 wt. % and less than 0.3 wt. %),∘,,
Cc1ccc(-n2nc(-c3ccccc3)c(C=C3C(=O)N(C4CCCCC4)C(=O)N(C4CCCCC4)C3=O)c2O)c(C)c1 [Compound P7],399 nm,399 nm,∘,∘,∘,∘,∘,,
Cc1ccccc1-n1nc(C)c(C=C2C(=O)N(C3CCCCC3)C(=O)N(C3CCCCC3)C2=O)c1O [Compound P3],404 nm,400 nm,∘,∘,∘,∘,∘,excellent wavelength compatibility,narrower wavelength distribution than Comparative Compound Z2; also recorded: wavelength distribution narrower and more optimized than Comparative Compound Z2
Cc1ccc(-n2nc(C(C)C)c(C=C3C(=O)N(C4CCCCC4)C(=O)N(C4CCCCC4)C3=O)c2O)c(C)c1 [Compound P10],403 nm,398 nm,∘,∘,∘,∘,∘,,
CC(C)c1nn(-c2ccccc2)c(O)c1C=C1C(=O)N(C2CCCCC2)C(=O)N(C2CCCCC2)C1=O [Compound P8],406 nm,408 nm,∘,Δ (ΔT more than 1.5% and 3% or less),∘,Δ (more than 0.1 wt. % and less than 0.3 wt. %),∘,,
Cc1ccccc1-n1nc(C(C)C)c(C=C2C(=O)N(c3ccccc3)C(=O)N(c3ccccc3)C2=O)c1O [Compound P15],402 nm,398 nm,∘,∘,∘,Δ (more than 0.1 wt. % and less than 0.3 wt. %),∘,,
"CC1=NN(c2ccccc2)C(=O)/C1=C\c1c(C)nn(-c2ccccc2)c1O [Comparative Compound Z2, reference compound]",405 nm,403 nm,∘,∘,∘,∘,,remarkably deteriorates compared to Examples 1 to 10,
Cc1ccccc1-n1nc(-c2ccccc2)c(C=C2C(=O)N(C3CCCCC3)C(=O)N(C3CCCCC3)C2=O)c1O [Compound P6],400 nm,400 nm,∘,Δ (ΔT more than 1.5% and 3% or less),∘,Δ (more than 0.1 wt. % and less than 0.3 wt. %),∘,,
